Non-standard residues stand in square brackets, D forms with d. Residues, ends and D or L forms follow the SMILES beside them. Phe(4-F) = N[C@@H](Cc1ccc(F)cc1)C(=O)O; d2Nal = N[C@H](Cc1ccc2ccccc2c1)C(=O)O; dNle = CCCC[C@@H](N)C(=O)O
Biological target: T1, KRAS-GTPγS (Homo sapiens, UniProt P01116)
T1 construct: proteins (amino acids 1-185) were; GST (N, cleaved yes); made in house; host or cells: Escherichia coli BL21
Assay: Microscale thermophoresis binding to labeled KRAS-GTPγS
Settings: 25 °C, NT-647 labelled protein, GTPγS-loaded, average of three measurements, read-out: affinity for labeled KRAS-GTPγS
Text: Cyclization in acetonitrile in the presence of an aqueous imidazole solution gave good results (Figure S23, SI). […] The binding was characterized by microscale thermophoresis studies (Figure 4 D).
VI. Biological analysis of Cyclorasin 9A5
Protein Expression and Purification material and methods:
Human wt-K-Ras and oncogenic K-Ras_G12V proteins (amino acids 1-185) were cloned in pGEX-6P-1 vector that encodes a glutathione S-transferase (GST) tag at the N-terminal of the expressed protein. The constructs were transformed in Escherichia coli BL21 cells – the cells were grown in Luria Broth (LB) media in the presence of 0.1 mg mL-1 ampicillin at 37 °C to an OD 700 then induced by the addition of 0.1 mM IPTG. The bacterial culture was then incubated overnight at 18 °C and harvested the second day by centrifugation. […]
Microscale thermophoresis (MST) measurements were performed using a NanoTemper Monolith™ NT.115 instrument (NanoTemper Technologies GmbH, München, Germany). […] Labeling levels (generally in the range 0.3-0.4 dye molecules per protein) were determined using calculated extinction coefficients and e647 = 250,000 M-1cm-1 for the dye concentration. […]
GTPγS (B) and K-Ras-G12V_ GDP (D). The Kd values for each interaction were calculated as an average of three measurements. […]

T1 sequence (P01116 1-185 isoform P01116-2): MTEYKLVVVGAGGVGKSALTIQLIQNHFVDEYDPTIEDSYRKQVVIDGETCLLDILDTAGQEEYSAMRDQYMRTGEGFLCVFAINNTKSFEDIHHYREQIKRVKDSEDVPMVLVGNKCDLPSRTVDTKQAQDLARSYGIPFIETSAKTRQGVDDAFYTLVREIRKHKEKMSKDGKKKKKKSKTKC

## CCCC[C@H]1NC(=O)[C@H](Cc2ccc(F)cc2)NC(=O)[C@H](CCCNC(=N)N)NC(=O)[C@@H](Cc2ccc3ccccc3c2)NC(=O)[C@H](CCCNC(=N)N)NC(=O)[C@H](CCCNC(=N)N)NC(=O)[C@H](CCCNC(=N)N)NC(=O)[C@@H](C)NC(=O)[C@H]([C@@H](C)O)NC(=O)[C@H](Cc2c[nH]c3ccccc23)NC(=O)[C@H](CCC(N)=O)NC1=O [cyclorasin 9A5] (cyclo(WT[dA]RRR[d2Nal]R[Phe(4-F)][dNle]Q))
  Kd: 600 nM
